In PubChem BioAssay (NCI):
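Cells were grown in 96-well plates and exposed to each compound for 48 hours at five concentrations; endpoints were interpolated linearly between bracketing concentrations, or set to the highest concentration if not reached. GI50 is the concentration that inhibits growth by half. At the TGI there is no net growth.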

Assays:
Assay in all cases: NCI anticancer screen, dose series, 48 h
HL-60(TB) leukemia = test system: HL-60(TB) leukemia
SK-MEL-5 melanoma = test system: SK-MEL-5 melanoma
PC-3 prostate = test system: PC-3 prostate
MDA-MB-231 breast = test system: MDA-MB-231 breast
UO-31 renal = test system: UO-31 renal
NCI-H226 lung = test system: NCI-H226 lung
OVCAR-5 ovarian = test system: OVCAR-5 ovarian
MALME-3M melanoma = test system: MALME-3M melanoma
K-562 leukemia = test system: K-562 leukemia
SF-539 CNS = test system: SF-539 CNS
RXF 393 renal = test system: RXF 393 renal
BT-549 breast = test system: BT-549 breast
NCI-H460 lung = test system: NCI-H460 lung
KM12 colon = test system: KM12 colon
SK-OV-3 ovarian = test system: SK-OV-3 ovarian
MOLT-4 leukemia = test system: MOLT-4 leukemia
IGROV1 ovarian = test system: IGROV1 ovarian
T-47D breast = test system: T-47D breast
OVCAR-4 ovarian = test system: OVCAR-4 ovarian
786-0 renal = test system: 786-0 renal
SR leukemia = test system: SR leukemia
A549 NSCLC = test system: A549 NSCLC
HS 578T breast = test system: HS 578T breast
SK-MEL-28 melanoma = test system: SK-MEL-28 melanoma
NCI-H522 lung = test system: NCI-H522 lung
TK-10 renal = test system: TK-10 renal
RPMI-8226 leukemia = test system: RPMI-8226 leukemia
SNB-75 CNS = test system: SNB-75 CNS

Which results are given for `CC12O[C@H](C[C@@H](OC(=O)CCC(=O)O)[C@H]1O)n1c3ccccc3c3c4c(c5c6ccccc6n2c5c31)C(=O)NC4=O`?
GI50 (HL-60(TB) leukemia): 9.62 µM; TGI (HL-60(TB) leukemia): 42.4 µM; GI50 (SK-MEL-5 melanoma): 1.41 µM; TGI (SK-MEL-5 melanoma): 6.69 µM; GI50 (PC-3 prostate): 3.44 µM; TGI (PC-3 prostate): > 50 µM; GI50 (MDA-MB-231 breast): 6.3 µM; TGI (MDA-MB-231 breast): 16.2 µM; GI50 (UO-31 renal): 0.201 µM; TGI (UO-31 renal): 3.55 µM; GI50 (NCI-H226 lung): 0.738 µM; TGI (NCI-H226 lung): 9.71 µM; GI50 (OVCAR-5 ovarian): 7.87 µM; TGI (OVCAR-5 ovarian): > 50 µM; GI50 (MALME-3M melanoma): 0.2 µM; TGI (MALME-3M melanoma): 2.36 µM; GI50 (K-562 leukemia): 5.07 µM; TGI (K-562 leukemia): > 50 µM; GI50 (SF-539 CNS): 1.22 µM; TGI (SF-539 CNS): 3.97 µM; GI50 (RXF 393 renal): 0.598 µM; TGI (RXF 393 renal): 4.16 µM; GI50 (BT-549 breast): 1.02 µM; TGI (BT-549 breast): 7.68 µM; GI50 (NCI-H460 lung): 1.46 µM; TGI (NCI-H460 lung): 12.2 µM; GI50 (KM12 colon): 0.285 µM; TGI (KM12 colon): 11.5 µM; GI50 (SK-OV-3 ovarian): 0.323 µM; TGI (SK-OV-3 ovarian): 3.44 µM; GI50 (MOLT-4 leukemia): 0.949 µM; TGI (MOLT-4 leukemia): 18 µM; GI50 (IGROV1 ovarian): 0.664 µM; TGI (IGROV1 ovarian): 38.8 µM; GI50 (T-47D breast): 0.83 µM; TGI (T-47D breast): > 50 µM; GI50 (OVCAR-4 ovarian): 5.77 µM; TGI (OVCAR-4 ovarian): > 50 µM; GI50 (786-0 renal): 2.14 µM; TGI (786-0 renal): 11.3 µM; GI50 (SR leukemia): 0.505 µM; TGI (SR leukemia): 10.5 µM; GI50 (A549 NSCLC): 1.55 µM; TGI (A549 NSCLC): > 50 µM; GI50 (HS 578T breast): 2.43 µM; TGI (HS 578T breast): 28.4 µM; GI50 (SK-MEL-28 melanoma): 1.51 µM; TGI (SK-MEL-28 melanoma): 19.8 µM; GI50 (NCI-H522 lung): 0.602 µM; TGI (NCI-H522 lung): 6.92 µM; GI50 (TK-10 renal): 0.411 µM; TGI (TK-10 renal): 10.9 µM; GI50 (RPMI-8226 leukemia): 5.98 µM; TGI (RPMI-8226 leukemia): 24.3 µM; GI50 (SNB-75 CNS): 1.07 µM; TGI (SNB-75 CNS): 7.41 µM
